The record followed here is patent US11919886B2, “4,9-dioxo-4,9-dihydronaphtho[2,3-B]furan-3-carboxamide derivatives and uses thereof for treating proliferative diseases and infectious diseases” (Academia Sinica, priority 2016, dated 2024).

In data set [1] the test system is Breast Cancer Cells (MCF). The experiment in a line: Cell viability by Cell-TiterGlo. In kind it is cell-based. Conditions: Homo sapiens, 48 h, two days, read-out: % of the activities in the presence of ~10 μM compound, Breast Cancer Cells (MCF). The protocol:
(§1) Compound 1 and its analogues shown in Table 6 below were tested for their activities on cancer cells and bacterial cells using assays described herein. H1975, MDA-MB231, and MCF7 cells were incubated in the presence of the compounds in cell growth medium containing 10% fetal bovine serum for two days in a mammalian cell culture incubatoe. Cell viability were monitored by using Cell-TiterGlo. Staphylococcus aureus and Escherichia coli were incubated in the presence of the compounds in Muller-Hinton broth for 16-24 hours in a 37° C. incubator. Bacterial growth was monitored by using Alamar Blue (Invitrogen).

Data set [2] concerns Breast Cancer Cells (MDA-MB231). The experiment in a line: Cell viability by Cell-TiterGlo. In kind it is cell-based. Conditions: Homo sapiens, MDA-MB-231, 48 h, two days, read-out: % of the activities in the presence of ~10 μM compound, Breast Cancer Cells (MDA-MB231). As to the method:
as §1

Data set [3] has as its system Lung Cancer Cells (H1975). The experiment in a line: Cell viability by Cell-TiterGlo. Type of data set: cell-based. The settings on record: Homo sapiens, NCI-H1975, 48 h, two days, read-out: % of the activities in the presence of ~10 μM compound, Lung Cancer Cells (H1975). As to the method: as §1
A further data set has as its system Escherichia coli. The experiment in a line: Bacterial growth by Alamar Blue in Muller-Hinton broth. In kind it is cell-based. The settings on record: 16-24 hours, read-out: % of the activities in the presence of ~10 μM compound, Escherichia coli. The protocol: as §1
(In general: Alamar Blue is a resazurin reagent that responds to reducing activity.)

In the next data set the test system is Staphylococcus aureus. Described as above. In kind it is cell-based. The settings on record: ~10 μM, 16-24 hours, Alamar Blue, read-out: % of the activities in the presence of ~10 μM compound, Staphylococcus aureus. As to the method: as §1
A further data set deals with H1975 cell line. The experiment in a line: Sulforhodamine B colorimetric (SRB) assay, H1975. Conditions: Homo sapiens, NCI-H1975, 72 h, H1975 cell line, SRB assay, 72 hours. A general note: Sulforhodamine B stains cellular protein and so reports cell mass.

For `O=C(NCCN1CCOCC1)c1coc2c1C(=O)c1ccccc1C2=O` [Compound 00053891400], the viability at 10 µM in data set [1] was determined as 6.1%; in data set [2], 12.2%; in data set [3], 4%. Moreover, the activity at 10 µM in the data set on Escherichia coli and with Staphylococcus aureus was above 100% each time.
`Cc1oc2c(c1C(=O)NCCCN1CCCC1)C(=O)c1ccccc1C2=O` [Compound 18, 2-Methyl-4,9-dioxo-N-(3-(pyrrolidin-1-yl)propyl)-4,9-dihydronaphtho[2,3-b]furan-3-carboxamide]: the IC50 (usually the point on the concentration scale where inhibition reaches its midpoint) in the data set with H1975 cell line was 24 nM.
Consider `CCCCNC(=O)c1c(C)oc2c1C(=O)c1ccccc1C2=O` [Compound 00055422996], for which the viability at 10 µM in data set [1] amounted to 6.9%; in data set [2], 20.9%; in data set [3] it was 4.3%. Also, the activity at 10 µM with Escherichia coli and with Staphylococcus aureus was above 100% in each case.
Regarding `COCCNC(=O)c1c(C)oc2c1C(=O)c1ccccc1C2=O` [Compound 00054811255], the results for the viability at 10 µM in data set [1], in data set [2] and in data set [3] were 6.5%, 13.4% and 4.2%, respectively. Besides, the activity at 10 µM in the data set on Escherichia coli and in the data set on Staphylococcus aureus was above 100% in each case.
Turning to `Cc1oc2c(c1C(=O)N1CCC(C)CC1)C(=O)c1ccccc1C2=O` [Compound 00054506228], the results for the viability at 10 µM in data set [1], in data set [2] and in data set [3] were 13.6%, 54.4% and 4.6%, respectively. Besides, the activity at 10 µM in the data set on Escherichia coli is above 100%; in the data set with Staphylococcus aureus it was 65.4%.
As to `Cc1oc2c(c1C(=O)NCCCCn1ccnc1)C(=O)c1ccccc1C2=O` [Compound 13, N-(4-(1H-imidazol-1-yl)butyl)-2-methyl-4,9-dioxo-4,9-dihydronaphtho[2,3-b]furan-3-carboxamide], the melting point (commonly the temperature, or range, at which the solid turns liquid) lay within 158.6 to 164.1 °C. In the data set on H1975 cell line, this compound had a half-maximal inhibitory concentration (IC50) of 250 nM.
In the data set on H1975 cell line, `CCc1oc2c(c1C(=O)NCCCn1ccnc1)C(=O)c1ccccc1C2=O` [Compound 11, N-(3-(1H-imidazol-1-yl)propyl)-2-ethyl-4,9-dioxo-4,9-dihydronaphtho[2,3-b]furan-3-carboxamide] showed an IC50 of 288 nM.
Turning to `CC(C)c1oc2c(c1C(=O)NCCCn1ccnc1)C(=O)c1ccccc1C2=O` [Compound 10, N-(3-(1H-imidazol-1-yl)propyl)-2-isopropyl-4,9-dioxo-4,9-dihydronaphtho[2,3-b]furan-3-carboxamide], the IC50 in the data set with H1975 cell line came to 260 nM.
Same read-out and setting: as for `Cc1[nH]c2c(c1C(=O)NCCCn1ccnc1)C(=O)c1ccccc1C2=O` [Compound 45, N-(3-(1H-imidazol-1-yl)propyl)-2-methyl-4,9-dioxo-4,9-dihydro-1H-benzo[f]indole-3-carboxamide], the figure is 8730 nM.
As to `Cc1oc2c(c1C(=O)NCCCn1cccc1)C(=O)c1ccccc1C2=O` [Compound 12, N-(3-(1H-pyrrol-1-yl)propyl)-2-methyl-4,9-dioxo-4,9-dihydronaphtho[2,3-b]furan-3-carboxamide], the melting point lay in the range of 143.5 to 150.7 °C. In the data set on H1975 cell line, this compound showed an IC50 of 918 nM.
For the compound `Cc1oc2c(c1C(=O)NCCn1ccnc1)C(=O)c1ccccc1C2=O` [Compound 5, N-(2-(1H-imidazol-1-yl)ethyl)-2-methyl-4,9-dioxo-4,9-dihydronaphtho [2,3-b]furan-3-carboxamide], in the data set on H1975 cell line, half-maximal inhibition (IC50) was put at 280 nM. This lies in the sub-micromolar range.
On the same count and under the same terms, to `Cc1oc2c(c1C(=O)NCCCN1CCOCC1)C(=O)c1ccccc1C2=O` [Compound 20, 2-Methyl-N-(3-morpholinopropyl)-4,9-dioxo-4,9-dihydronaphtho[2,3-b]furan-3-carboxamide] belongs 80 nM.
Turning to `Cc1oc2c(c1C(=O)NCCC(C)C)C(=O)c1ccccc1C2=O` [Compound 00055727872], the figures for the viability at 10 µM in data set [1], in data set [2] and in data set [3] were 44.3%, 72% and 4.2%, respectively. In addition, the activity at 10 µM with Escherichia coli and in the data set with Staphylococcus aureus was above 100% each time.
As to `O=C1c2ccccc2C(=O)c2c1oc(-c1ccccc1)c2C(=O)NCCCn1ccnc1` [Compound 9, N-(3-(1H-imidazol-1-yl)propyl)-4,9-dioxo-2-phenyl-4,9-dihydronaphtho[2,3-b]furan-3-carboxamide], in the data set on H1975 cell line, the IC50 worked out at 826 nM. In other words, the sub-micromolar range.
With `Cc1oc2c(c1C(=O)NC(C)(C)C)C(=O)c1ccccc1C2=O` [Compound 00055422098], the viability at 10 µM turned out to be 35% in data set [1], 69.8% in data set [2] and 3.7% in data set [3]. Further, the activity at 10 µM with Escherichia coli and in the data set on Staphylococcus aureus was above 100% in each case.
As to `Cc1oc2c(c1C(=O)N1CCOCC1)C(=O)c1ccccc1C2=O` [Compound 00056034607], the viability at 10 µM in data set [1] came to 12.9%; in data set [2], 61.2%; in data set [3], 4.4%. Moreover, the activity at 10 µM in the data set with Escherichia coli was above 100%; in the data set with Staphylococcus aureus it was 75.8%.
As for `Cc1oc2c(c1C(=O)NCCCCc1ccccc1)C(=O)c1ccccc1C2=O` [Compound 17, 2-Methyl-4,9-dioxo-N-(4-phenylbutyl)-4,9-dihydronaphtho[2,3-b]furan-3-carboxamide], the melting point lay within 151.4 to 152.7 °C. The same compound yielded an IC50 in the data set on H1975 cell line above 10000 nM.
